Measured values published in ChEMBL document CHEMBL5143734, “Seco-Lupane Triterpene Derivatives Induce Ferroptosis through GPX4/ACSL4 Axis and Target Cyclin D1 to Block the Cell Cycle” (J Med Chem, 2022).

Legend:
Type in all cases: functional, cell-based
PANC-1 = assay: Cytotoxicity against human PANC-1 cells assessed as reduction in cell viability by CCK-8 assay
A549 = assay: Cytotoxicity against human A549 cells assessed as reduction in cell viability by CCK-8 assay
PC-3M = assay: Cytotoxicity against human PC-3M cells assessed as reduction in cell viability by CCK-8 assay
MCF7 = assay: Cytotoxicity against human MCF7 cells assessed as reduction in cell viability by CCK-8 assay
HepG2 = assay: Cytotoxicity against human HepG2 cells assessed as reduction in cell viability by CCK-8 assay

`C=C(C)[C@@H]1CC[C@]2(C(=O)OCCCCBr)CC[C@]3(C)[C@H](C[C@H]4OC(=O)C[C@@H](O)[C@]5(C)[C@@H]4[C@@]3(C)CC[C@H]5C(=C)C)[C@@H]12` gave an IC50 (PANC-1) of 200 µM, an IC50 (A549) of 89 µM and an IC50 (PC-3M) of 82.2 µM. The IC50 (MCF7) was > 200 µM and the IC50 (HepG2) was 124 µM.
With `C=C(C)[C@@H]1CC[C@]2(C(=O)OCCCCCBr)CC[C@]3(C)[C@H](C[C@@H](O)[C@@H]4[C@@]5(C)C(CC(=O)OC)OC(C)(C)C5CC[C@]43C)[C@@H]12` (stereo not given in full) the IC50 (PANC-1) was 54.9 µM, the IC50 (A549) was 40.6 µM and the IC50 (PC-3M) was 44.1 µM. For the same compound, the IC50 (MCF7) was 80 µM and the IC50 (HepG2) was 27.7 µM.
With `C=C(C)[C@@H]1CC[C@]2(C(=O)OCCCCCCCCCCn3ccnc3C)CC[C@]3(C)[C@H](C[C@H]4OC(=O)C[C@@H](O)[C@]5(C)[C@@H]4[C@@]3(C)CC[C@H]5C(=C)C)[C@@H]12` the IC50 (PANC-1) was 10.1 µM, the IC50 (A549) was 11.7 µM and the IC50 (PC-3M) was 8.63 µM. It also gave an IC50 (MCF7) of 23.5 µM and an IC50 (HepG2) of 3.02 µM.
For `C=C(C)[C@@H]1CC[C@]2(C(=O)OCCCCn3ccnc3CC)CC[C@]3(C)[C@H](C[C@H]4OC(=O)C[C@@H](O)[C@]5(C)[C@@H]4[C@@]3(C)CC[C@H]5C(=C)C)[C@@H]12`, the IC50 (PANC-1) was 16.1 µM, the IC50 (A549) was 19.5 µM and the IC50 (PC-3M) was 12.1 µM. It also gave an IC50 (MCF7) of 91.1 µM and an IC50 (HepG2) of 14.6 µM.
In the case of `C=C(C)[C@@H]1CC[C@]2(C(=O)OCCCCCCn3cc(CCN)c4ccccc43)CC[C@]3(C)[C@H](C[C@@H](O)[C@@H]4[C@@]5(C)C(CC(=O)OC)OC(C)(C)C5CC[C@]43C)[C@@H]12` (stereo not given in full), the IC50 (PANC-1) is reported as 7.06 µM, the IC50 (A549) is reported as 5.97 µM and the IC50 (PC-3M) is reported as 3.99 µM. The IC50 (MCF7) was 24.5 µM and the IC50 (HepG2) was 1.91 µM.
For `C=C(C)[C@@H]1CC[C@]2(C(=O)OCCCCn3cncn3)CC[C@]3(C)[C@H](C[C@@H](O)[C@@H]4[C@@]5(C)C(CC(=O)OC)OC(C)(C)C5CC[C@]43C)[C@@H]12` (stereo not given in full), the IC50 (PANC-1) was 58.6 µM, the IC50 (A549) was 42.4 µM and the IC50 (PC-3M) was 45.3 µM. It also gave an IC50 (MCF7) of 75.2 µM and an IC50 (HepG2) of 26.1 µM.
`C=C(C)[C@@H]1CC[C@]2(C(=O)OCCCCCCCCCCn3cncn3)CC[C@]3(C)[C@H](C[C@@H](O)[C@@H]4[C@@]5(C)C(CC(=O)OC)OC(C)(C)C5CC[C@]43C)[C@@H]12` (stereo not given in full) showed an IC50 (PANC-1) of 104 µM, an IC50 (A549) of 77.8 µM and an IC50 (PC-3M) of 23.5 µM. The IC50 (MCF7) was 71 µM and the IC50 (HepG2) was 36.4 µM.
Work on `C=C(C)[C@@H]1CC[C@]2(C(=O)OCCCCCCCCCCn3cnc(C)c3)CC[C@]3(C)[C@H](C[C@@H](O)[C@@H]4[C@@]5(C)C(CC(=O)OC)OC(C)(C)C5CC[C@]43C)[C@@H]12` (stereo not given in full) yielded an IC50 (PANC-1) of 12.3 µM, an IC50 (A549) of 22.4 µM and an IC50 (PC-3M) of 12.7 µM. For the same compound, the IC50 (MCF7) was 33.7 µM and the IC50 (HepG2) was 6.76 µM.
`C=C(C)[C@@H]1CC[C@]2(C(=O)OCCCCCCn3ccnc3)CC[C@]3(C)[C@H](C[C@H]4OC(=O)C[C@@H](O)[C@]5(C)[C@@H]4[C@@]3(C)CC[C@H]5C(=C)C)[C@@H]12` showed an IC50 (PANC-1) of 45.3 µM, an IC50 (A549) of 24 µM and an IC50 (PC-3M) of 23.2 µM. For the same compound, the IC50 (MCF7) was 47.1 µM and the IC50 (HepG2) was 14.5 µM.
In the case of `C=C(C)[C@@H]1CC[C@]2(C(=O)OCCCCCn3ccnc3C)CC[C@]3(C)[C@H](C[C@H]4OC(=O)C[C@@H](O)[C@]5(C)[C@@H]4[C@@]3(C)CC[C@H]5C(=C)C)[C@@H]12`, the IC50 (PANC-1) is reported as 14.2 µM, the IC50 (A549) is reported as 15.9 µM and the IC50 (PC-3M) is reported as 12.4 µM. For the same compound, the IC50 (MCF7) was 46 µM and the IC50 (HepG2) was 8.89 µM.
`C=C(C)[C@@H]1CC[C@]2(C(=O)OCCCCCCCCCCn3ccnc3C)CC[C@]3(C)[C@H](C[C@@H](O)[C@@H]4[C@@]5(C)C(CC(=O)OC)OC(C)(C)C5CC[C@]43C)[C@@H]12` (stereo not given in full) gave an IC50 (PANC-1) of 7.95 µM, an IC50 (A549) of 19.5 µM and an IC50 (PC-3M) of 10.3 µM. The IC50 (MCF7) was 19.4 µM and the IC50 (HepG2) was 4.91 µM.
For `C=C(C)[C@@H]1CC[C@]2(C(=O)OCCCCCCn3ccnc3C)CC[C@]3(C)[C@H](C[C@@H](O)[C@@H]4[C@@]5(C)C(CC(=O)OC)OC(C)(C)C5CC[C@]43C)[C@@H]12` (stereo not given in full), the IC50 (PANC-1) was 18.7 µM, the IC50 (A549) was 25.4 µM and the IC50 (PC-3M) was 20.9 µM. For the same compound, the IC50 (MCF7) was 29.9 µM and the IC50 (HepG2) was 12 µM.
In the case of `C=C(C)[C@@H]1CC[C@]2(C(=O)OCCCCCCCCCCBr)CC[C@]3(C)[C@H](C[C@@H](O)[C@@H]4[C@@]5(C)C(CC(=O)OC)OC(C)(C)C5CC[C@]43C)[C@@H]12` (stereo not given in full), the IC50 (PANC-1) is reported as 15.1 µM, the IC50 (A549) is reported as 34.6 µM and the IC50 (PC-3M) is reported as 16.6 µM. The IC50 (MCF7) was 88.5 µM and the IC50 (HepG2) was 15.1 µM.
Compound `C=C(C)[C@@H]1CC[C@]2(C(=O)OCCCCCCCCCCBr)CC[C@]3(C)[C@H](C[C@H]4OC(=O)C[C@@H](O)[C@]5(C)[C@@H]4[C@@]3(C)CC[C@H]5C(=C)C)[C@@H]12` has an IC50 (PANC-1) of 23.1 µM, an IC50 (A549) of 22 µM and an IC50 (PC-3M) of 17.3 µM. The IC50 (MCF7) was 53.9 µM and the IC50 (HepG2) was 10.9 µM.
With `C=C(C)[C@@H]1CC[C@]2(C(=O)OCCCCCCn3ccnc3)CC[C@]3(C)[C@H](C[C@@H](O)[C@@H]4[C@@]5(C)C(CC(=O)OC)OC(C)(C)C5CC[C@]43C)[C@@H]12` (stereo not given in full) the IC50 (PANC-1) was 25.9 µM, the IC50 (A549) was 26.1 µM and the IC50 (PC-3M) was 19.7 µM. It also gave an IC50 (MCF7) of 45.5 µM and an IC50 (HepG2) of 15.8 µM.
Compound `C=C(C)[C@@H]1CC[C@]2(C(=O)OCCCCn3cc(CCN)c4ccccc43)CC[C@]3(C)[C@H](C[C@@H](O)[C@@H]4[C@@]5(C)C(CC(=O)OC)OC(C)(C)C5CC[C@]43C)[C@@H]12` (stereo not given in full) has an IC50 (PANC-1) of 6.42 µM, an IC50 (A549) of 7.05 µM and an IC50 (PC-3M) of 5.66 µM. The IC50 (MCF7) was 6.25 µM and the IC50 (HepG2) was 1.7 µM.
In the case of `C=C(C)[C@@H]1CC[C@]2(C(=O)OCCCCCn3ccnc3CC)CC[C@]3(C)[C@H](C[C@@H](O)[C@@H]4[C@@]5(C)C(CC(=O)OC)OC(C)(C)C5CC[C@]43C)[C@@H]12` (stereo not given in full), the IC50 (PANC-1) is reported as 26.8 µM, the IC50 (A549) is reported as 25.9 µM and the IC50 (PC-3M) is reported as 23.9 µM. For the same compound, the IC50 (MCF7) was 45.5 µM and the IC50 (HepG2) was 14.1 µM.
In the case of `C=C(C)[C@@H]1CC[C@]2(C(=O)OCCCCCCCCCCn3cc(CCN)c4ccccc43)CC[C@]3(C)[C@H](C[C@@H](O)[C@@H]4[C@@]5(C)C(CC(=O)OC)OC(C)(C)C5CC[C@]43C)[C@@H]12` (stereo not given in full), the IC50 (PANC-1) is reported as 5.63 µM, the IC50 (A549) is reported as 7.97 µM and the IC50 (PC-3M) is reported as 5.7 µM. It also gave an IC50 (MCF7) of 25.5 µM and an IC50 (HepG2) of 2.11 µM.
With `C=C(C)[C@@H]1CC[C@]2(C(=O)OCCCn3ccnc3CC)CC[C@]3(C)[C@H](C[C@@H](O)[C@@H]4[C@@]5(C)C(CC(=O)OC)OC(C)(C)C5CC[C@]43C)[C@@H]12` (stereo not given in full) the IC50 (PANC-1) was 47.7 µM, the IC50 (A549) was 27.4 µM and the IC50 (PC-3M) was 24.9 µM. For the same compound, the IC50 (MCF7) was 66.2 µM and the IC50 (HepG2) was 18.9 µM.
In the case of `C=C(C)[C@@H]1CC[C@]2(C(=O)OCCCCCCn3ccnc3CC)CC[C@]3(C)[C@H](C[C@H]4OC(=O)C[C@@H](O)[C@]5(C)[C@@H]4[C@@]3(C)CC[C@H]5C(=C)C)[C@@H]12`, the IC50 (PANC-1) is reported as 17.5 µM, the IC50 (A549) is reported as 14.6 µM and the IC50 (PC-3M) is reported as 12.9 µM. For the same compound, the IC50 (MCF7) was 48.8 µM and the IC50 (HepG2) was 3.59 µM.
`C=C(C)[C@@H]1CC[C@]2(C(=O)OCCCCCCn3cncn3)CC[C@]3(C)[C@H](C[C@@H](O)[C@@H]4[C@@]5(C)C(CC(=O)OC)OC(C)(C)C5CC[C@]43C)[C@@H]12` (stereo not given in full) gave an IC50 (PANC-1) of 59.8 µM, an IC50 (A549) of 52.7 µM and an IC50 (PC-3M) of 27.4 µM. It also gave an IC50 (MCF7) of 79.9 µM and an IC50 (HepG2) of 37.8 µM.
`C=C(C)[C@@H]1CC[C@]2(C(=O)OCCCCCCCCCCn3ccnc3)CC[C@]3(C)[C@H](C[C@H]4OC(=O)C[C@@H](O)[C@]5(C)[C@@H]4[C@@]3(C)CC[C@H]5C(=C)C)[C@@H]12` was tested, and the IC50 (PANC-1) was 11.3 µM, the IC50 (A549) was 17.2 µM and the IC50 (PC-3M) was 11.8 µM. For the same compound, the IC50 (MCF7) was 44.9 µM and the IC50 (HepG2) was 4.23 µM.
